Patent US8153809B2, “Dihydropyridone ureas as P2X7 modulators” (Roche Palo Alto LLC, priority 2008, dated 2012)

Target: T1, P2X7 (UniProt Q99572)
T1 sequence (Q99572 1-595): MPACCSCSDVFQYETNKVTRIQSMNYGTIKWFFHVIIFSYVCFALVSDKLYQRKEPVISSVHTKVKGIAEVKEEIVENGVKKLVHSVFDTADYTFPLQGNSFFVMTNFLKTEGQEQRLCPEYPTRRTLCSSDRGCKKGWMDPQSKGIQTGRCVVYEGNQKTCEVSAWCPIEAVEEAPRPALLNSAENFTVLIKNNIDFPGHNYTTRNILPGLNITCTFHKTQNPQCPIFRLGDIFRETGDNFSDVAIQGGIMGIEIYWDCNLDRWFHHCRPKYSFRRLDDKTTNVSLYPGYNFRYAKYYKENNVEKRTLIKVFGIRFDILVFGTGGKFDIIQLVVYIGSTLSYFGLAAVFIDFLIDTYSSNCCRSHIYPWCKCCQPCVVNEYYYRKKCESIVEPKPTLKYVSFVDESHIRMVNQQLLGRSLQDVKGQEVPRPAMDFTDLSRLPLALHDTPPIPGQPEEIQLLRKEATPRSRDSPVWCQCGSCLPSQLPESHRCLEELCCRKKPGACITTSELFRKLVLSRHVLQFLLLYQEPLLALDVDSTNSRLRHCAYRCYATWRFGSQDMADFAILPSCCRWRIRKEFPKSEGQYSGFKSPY
Experiment: pIC50 values for P2X7 (Table 1)
Format: cell-based
Description: Intracellular Calcium Flux (FLIPR) Assay
Compound and Reagent Preparation
Stock solutions of compounds were prepared from powders as a 10 mM DMSO stock solution. These solutions were stored at RT during the two week period of these experiments to prevent freeze-thaw of the DMSO stocks. The DMSO stocks were added to the appropriate assay buffer at a concentration of 10 μM, and then diluted serially to the final concentrations that were tested. […] The aqueous solutions of compounds as well as ATP (Sigma A7699) and BzATP (Sigma B6396) were prepared fresh for each day of experiment.
1321N1 cells stably expressing the full length human P2X7 gene (1321N1-hP2X7) and HEK293 cells stably expressing the full length rat P2X7 gene (HEK293-rP2X7) were obtained from the Roche Cell Culture Facility. 1321N1-hP2X7 cells were grown in Dulbecco's Modified Eagle's Medium (DMEM) high glucose supplemented with 10% FBS and 250 μg/mL G418. HEK293-rP2X7 cells were grown in DMEM/F-12 supplemented with 10% FBS, 1 mM CaCl2, 2 mM MgCl2, 2 mM L-Glutamine and 500 μg/ml G418. Cells were split such that they never became >70% confluent.
Intracellular Calcium Flux (FLIPR)
On the day prior to the experiment, 1321N1-hP2X7 or HEK293-rP2X7 cells were released into suspension with calcium-free PBS+Versene and washed by centrifugation with calcium-free PBS to remove the Versene.
On the day of the experiment, plates were washed with FLIPR buffer (calcium- and magnesium-free Hank's Balanced Salt Solution (HBSS) supplemented with 10 mM Hepes, 2.5 mM probenecid and 2 mM calcium chloride) using a BIO-TEK 96 channel plate washer and incubated with […] fluo-3 dye at 37° C. for one hr. The dye was then removed by plate washing and the cells were allowed to equilibrate for 20 min at room temperature with antagonist or vehicle (FLIPR buffer). Agonist (100 μM BzATP final concentration for hP2X7; 5 μM BzATP final concentration or rP2X7) was added online with the FLIPR and fluorescence measurements made at 1 sec intervals for 60 sec followed by 3 sec intervals for a further 4 min (5 min total). A final addition of 5 μM ionomycin was made and the maximal BzATP-evoked fluorescence normalized to the maximal ionomycin-evoked fluorescence.

Going from `Cc1cc(F)c(NC(=O)N2C=CC(=O)C[C@H]2c2cccc(F)c2)cc1OCCO` [Compound 58, (S)-2-(3-Fluoro-phenyl)-4-oxo-3,4-dihydro-2H-pyridine-1-carboxylic acid [2-fluoro-5-(2-hydroxy-ethoxy)-4-methyl-phenyl]-amide] to `COc1cc(NC(=O)N2C=CC(=O)C[C@H]2c2cccc(F)c2)c(Br)cc1C` [Compound 29, (S)-2-(3-Fluoro-phenyl)-4-oxo-3,4-dihydro-2H-pyridine-1-carboxylic acid (2-bromo-5-methoxy-4-methyl-phenyl)-amide], the pIC50 rises from 6.43 to 7.93.

Compared with `Cc1cc2ccn(C)c2cc1NC(=O)N1C=CC(=O)C[C@H]1c1ccc(F)cc1` [Compound 140, (S)-2-(4-Fluoro-phenyl)-4-oxo-3,4-dihydro-2H-pyridine-1-carboxylic acid (1,5-dimethyl-1H-indol-6-yl)-amide], `COc1cc(C)c(NC(=O)N2C=CC(=O)C[C@H]2c2ccc(F)cc2)cc1OC` [Compound 26, (S)-2-(4-Fluoro-phenyl)-4-oxo-3,4-dihydro-2H-pyridine-1-carboxylic acid (4,5-dimethoxy-2-methyl-phenyl)-amide] is lower in pIC50: 8.565 for the first, 7.93 for the second.

Going from `COc1cc(NC(=O)N2C=CC(=O)C[C@H]2c2ccc(F)cc2)c(Cl)cc1Cl` [Compound 7, (S)-2-(4-Fluoro-phenyl)-4-oxo-3,4-dihydro-2H-pyridine-1-carboxylic acid (2,4-dichloro-5-methoxy-phenyl)-amide] to `Cc1cc(Cl)c(OCCCO)cc1NC(=O)N1C=CC(=O)C[C@H]1c1ccc(F)cc1` [Compound 114, (S)-2-(4-Fluoro-phenyl)-4-oxo-3,4-dihydro-2H-pyridine-1-carboxylic acid [4-chloro-5-(3-hydroxy-propoxy)-2-methyl-phenyl]-amide], the pIC50 rises from 6.73 to 7.74.

`Cc1c2ccc(NC(=O)N3C=CC(=O)C[C@H]3c3ccc(F)cc3)cc2nn1C` [Compound 146, (S)-2-(4-Fluoro-phenyl)-4-oxo-3,4-dihydro-2H-pyridine-1-carboxylic acid (2,3-dimethyl-2H-indazol-6-yl)-amide] and `Cc1nc2cc(NC(=O)N3C=CC(=O)CC3c3ccc(F)cc3)ccc2s1` (stereo not drawn) [Compound 113, 2-(4-Fluoro-phenyl)-4-oxo-3,4-dihydro-2H-pyridine-1-carboxylic acid (2-methyl-benzothiazol-5-yl)-amide] are within 0.2 log units of each other in pIC50: 5.615 for the first, 5.505 for the second.

Compared with `COc1cc(NC(=O)N2C=CC(=O)C[C@H]2c2ccc(F)cc2)c(C(C)C)cc1OC` [Compound 13, (S)-2-(4-Fluoro-phenyl)-4-oxo-3,4-dihydro-2H-pyridine-1-carboxylic acid (2-isopropyl-4,5-dimethoxy-phenyl)-amide], `COc1ccc(OC)c(NC(=O)N2C=CC(=O)CC2c2ccc(F)cc2)c1` (stereo not drawn) [Compound 65, 2-(4-Fluoro-phenyl)-4-oxo-3,4-dihydro-2H-pyridine-1-carboxylic acid (2,5-dimethoxy-phenyl)-amide] is lower in pIC50: 6.66 for the first, 6.23 for the second.

First: COc1cc(Br)c(NC(=O)N2C=CC(=O)C[C@H]2c2cccc(F)c2)cc1OC [Compound 19, (S)-2-(3-Fluoro-phenyl)-4-oxo-3,4-diohydro-2H-pyridine-1-carboxylic acid (2-bromo-4,5-dimethoxy-phenyl)-amide]
Second: COc1cc(NC(=O)N2C=CC(=O)C[C@@H]2c2ccc(F)c(F)c2)c(Br)cc1C [Compound 82, (R)-2-(3,4-Difluoro-phenyl)-4-oxo-3,4-dihydro-2H-pyridine-1-carboxylic acid (2-bromo-5-methoxy-4-methyl-phenyl)-amide]
The pIC50 of the first is higher: 8.56 for the first, 5.31 for the second.

First: Cn1cc2ccc(NC(=O)N3C=CC(=O)C[C@H]3c3cccc(F)c3)cc2n1 [Compound 147, (S)-2-(3-Fluoro-phenyl)-4-oxo-3,4-dihydro-2H-pyridine-1-carbxoylic acid (2-methyl-2H-indazol-6-yl)-amide]
Second: COc1cc(NC(=O)N2C=CC(=O)C[C@H]2c2cccc(F)c2)ccc1F [Compound 73, (S)-2-(3-Fluoro-phenyl)-4-oxo-3,4-dihydro-2H-pyridine-1-carboxylic acid (4-fluoro-3-methoxy-phenyl)-amide]
The pIC50 of the first is lower: 5.505 for the first, 6.83 for the second.

Compared with `CCc1c(NC(=O)N2C=CC(=O)C[C@H]2c2ccc(F)cc2)ccc2ncccc12` [Compound 149, (S)-2-(4-Fluoro-phenyl)-4-oxo-3,4-dihydro-2H-pyridine-1-carboxylic acid (5-ethyl-quinolin-6-yl)-amide], `Cc1ccccc1NC(=O)N1C=CC(=O)C[C@H]1c1ccc(F)cc1` [Compound 131, (S)-2-(4-Fluoro-phenyl)-4-oxo-3,4-dihydro-2H-pyridine-1-carbxoylic acid o-tolylamide] is lower in pIC50: 8.445 for the first, 7.53 for the second.

Compared with `O=C1C=CN(C(=O)Nc2cccc3c2CCO3)[C@H](c2ccc(F)cc2)C1` [Compound 152, (S)-2-(4-Fluoro-phenyl)-4-oxo-3,4-dihydro-2H-pyridine-1-carboxylic acid (2,3-dihydro-benzofuran-4-yl)-amide], `Cc1c(Cl)cccc1NC(=O)N1C=CC(=O)C[C@H]1c1ccc(F)cc1` [Compound 138, (S)-2-(4-Fluoro-phenyl)-4-oxo-3,4-dihydro-2H-pyridine-1-carboxylic acid (3-chloro-2-methyl-phenyl)-amide] is higher in pIC50: 7.355 for the first, 8.34 for the second.

First: O=C1C=CN(C(=O)Nc2ccc(OC(F)(F)F)cc2Br)[C@H](c2ccc(F)cc2)C1 [Compound 119]
Second: O=C1C=CN(C(=O)Nc2cc(I)c(Cl)cc2Br)[C@H](c2ccc(F)cc2)C1 [Compound 10, (S)-2-(4-Fluoro-phenyl)-4-oxo-3,4-dihydro-2H-pyridine-1-carboxylic acid (2-bromo-4-chloro-5-iodo-phenyl)-amide]
The pIC50 of the first is lower: 6.175 for the first, 6.5175 for the second.

Compared with `Cc1cc(Cl)c(CNC(=O)OC(C)(C)C)cc1NC(=O)N1C=CC(=O)C[C@H]1c1ccc(F)cc1` [Compound 122, (2-Chloro-5-{[(S)-2-(4-fluoro-phenyl)-4-oxo-3,4-dihydro-2H-pyridine-1-carbonyl]-amino}-4-methyl-benzyl)-carbamic acid tert-butyl ester], `COc1cc(NC(=O)N2C=CC(=O)C[C@H]2c2ccc(F)cc2)c(Br)cc1S(C)(=O)=O` [Compound 28, (S)-2-(4-Fluoro-phenyl)-4-oxo-3,4-dihydro-2H-pyridine-1-carboxylic acid (2-bromo-4-methanesulfonyl-5-methoxy-phenyl)-amide] is higher in pIC50: 5.995 for the first, 6.435 for the second.

Compared with `COc1cc(NC(=O)N2C=CC(=O)C[C@H]2c2cc(F)cc(F)c2)c(Br)cc1C` (stereo in doubt) [Compound 47, 2-(3,5-Difluoro-phenyl)-4-oxo-3,4-dihydro-2H-pyridine-1-carboxylic acid (2-bromo-5-methoxy-4-methyl-phenyl)-amide], `COc1cc(NC(=O)N2C=CC(=O)C[C@@H]2c2cc(F)cc(F)c2)c(Br)cc1C` [Compound 79, (R)-2-(3,5-Difluoro-phenyl)-4-oxo-3,4-dihydro-2H-pyridine-1-carboxylic acid (2-bromo-5-methoxy-4-methyl-phenyl)-amide] is lower in pIC50: 6.987 for the first, 5.475 for the second.

Going from `COc1cccc(NC(=O)N2C=CC(=O)C[C@H]2c2ccc(F)cc2)c1C` [Compound 132, (S)-2-(4-Fluoro-phenyl)-4-oxo-3,4-dihydro-2H-pyridine-1-carboxylic acid (3-methoxy-2-methyl-phenyl)-amide] to `Cc1cccc(NC(=O)N2C=CC(=O)C[C@H]2c2ccc(F)cc2)c1` [Compound 130, (S)-2-(4-Fluoro-phenyl)-4-oxo-3,4-dihydro-2H-pyridine-1-carboxylic acid m-tolylamide], the pIC50 falls from 8.57 to 7.12.

Compound `Cc1cc(C)cc(NC(=O)N2C=CC(=O)C[C@H]2c2ccc(F)cc2)c1` [Compound 104, (S)-2-(4-Fluoro-phenyl)-4-oxo-3,4-dihydro-2H-pyridine-1-carboxylic acid (3,5-dimethyl-phenyl)-amide] has a pIC50 of 7.655.
